Laboratory results as given in ChEMBL document CHEMBL5291721, “A preclinical secondary pharmacology resource illuminates target-adverse drug reaction associations of marketed drugs” (Nat Commun, 2023).

What was measured:
[1] = target: Beta-1 adrenergic receptor (Homo sapiens, UniProt P08588); type: functional
[2] = target: Glutamate receptor ionotropic, NMDA 1 (Rattus norvegicus, UniProt P35439)
Cannabinoid receptor 1 = Cannabinoid receptor 1 (Homo sapiens, UniProt P21554); type: functional, cell-based
Cannabinoid receptor 1, sequence (P21554 whole entry): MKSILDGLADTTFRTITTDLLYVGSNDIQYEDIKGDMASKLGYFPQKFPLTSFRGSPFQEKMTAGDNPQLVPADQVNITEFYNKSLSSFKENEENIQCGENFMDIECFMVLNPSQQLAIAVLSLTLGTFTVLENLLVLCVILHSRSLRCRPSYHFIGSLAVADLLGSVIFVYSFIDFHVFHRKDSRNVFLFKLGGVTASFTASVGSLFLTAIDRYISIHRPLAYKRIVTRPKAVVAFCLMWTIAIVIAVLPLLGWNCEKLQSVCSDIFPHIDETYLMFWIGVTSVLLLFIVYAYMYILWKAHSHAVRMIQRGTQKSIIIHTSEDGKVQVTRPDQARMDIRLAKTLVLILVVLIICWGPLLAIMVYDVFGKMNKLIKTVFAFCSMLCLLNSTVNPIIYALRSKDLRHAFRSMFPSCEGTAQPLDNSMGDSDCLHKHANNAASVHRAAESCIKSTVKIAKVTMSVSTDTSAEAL

[3] = target: 5-hydroxytryptamine receptor 2B (Homo sapiens, UniProt P41595); type: functional, cell-based
5-hydroxytryptamine receptor 2B, sequence (P41595 whole entry): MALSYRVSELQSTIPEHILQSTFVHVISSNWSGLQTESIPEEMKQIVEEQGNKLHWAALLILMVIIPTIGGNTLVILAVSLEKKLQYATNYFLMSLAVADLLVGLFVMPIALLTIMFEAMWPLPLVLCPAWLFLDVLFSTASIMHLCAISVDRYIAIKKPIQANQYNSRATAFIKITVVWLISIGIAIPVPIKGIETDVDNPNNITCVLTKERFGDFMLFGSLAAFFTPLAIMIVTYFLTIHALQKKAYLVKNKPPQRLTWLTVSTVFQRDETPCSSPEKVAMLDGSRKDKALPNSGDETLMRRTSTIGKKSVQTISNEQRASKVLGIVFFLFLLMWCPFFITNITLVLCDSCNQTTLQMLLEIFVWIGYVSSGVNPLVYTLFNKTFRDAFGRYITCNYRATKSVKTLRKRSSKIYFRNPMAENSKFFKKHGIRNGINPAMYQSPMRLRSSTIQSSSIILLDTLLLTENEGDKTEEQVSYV

[4] = target: Delta-type opioid receptor (Homo sapiens, UniProt P41143)
Delta-type opioid receptor, sequence (P41143 whole entry): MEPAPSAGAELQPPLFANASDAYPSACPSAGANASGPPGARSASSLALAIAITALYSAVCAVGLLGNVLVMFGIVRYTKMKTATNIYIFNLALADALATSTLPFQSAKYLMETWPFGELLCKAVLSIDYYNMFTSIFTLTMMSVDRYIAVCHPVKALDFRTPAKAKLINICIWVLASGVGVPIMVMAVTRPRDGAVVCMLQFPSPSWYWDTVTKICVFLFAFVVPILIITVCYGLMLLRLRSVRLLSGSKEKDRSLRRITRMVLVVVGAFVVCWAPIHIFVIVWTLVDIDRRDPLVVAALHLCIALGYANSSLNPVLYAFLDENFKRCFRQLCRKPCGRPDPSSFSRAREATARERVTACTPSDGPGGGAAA

[5] = target: Kappa-type opioid receptor (Homo sapiens, UniProt P41145)
Kappa-type opioid receptor, sequence (P41145 whole entry): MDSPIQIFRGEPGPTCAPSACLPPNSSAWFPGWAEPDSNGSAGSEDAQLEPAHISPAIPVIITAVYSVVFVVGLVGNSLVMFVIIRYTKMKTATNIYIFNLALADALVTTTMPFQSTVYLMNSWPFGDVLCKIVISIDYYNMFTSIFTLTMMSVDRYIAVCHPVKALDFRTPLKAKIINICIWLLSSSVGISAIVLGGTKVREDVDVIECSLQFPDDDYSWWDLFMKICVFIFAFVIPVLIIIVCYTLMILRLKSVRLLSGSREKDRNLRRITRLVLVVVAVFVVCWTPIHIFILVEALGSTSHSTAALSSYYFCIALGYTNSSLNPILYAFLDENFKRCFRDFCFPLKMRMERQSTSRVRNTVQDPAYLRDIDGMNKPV

Endothelin-1 receptor = target: T1, Endothelin-1 receptor (Homo sapiens, UniProt P25101)
T1 sequence (P25101 whole entry): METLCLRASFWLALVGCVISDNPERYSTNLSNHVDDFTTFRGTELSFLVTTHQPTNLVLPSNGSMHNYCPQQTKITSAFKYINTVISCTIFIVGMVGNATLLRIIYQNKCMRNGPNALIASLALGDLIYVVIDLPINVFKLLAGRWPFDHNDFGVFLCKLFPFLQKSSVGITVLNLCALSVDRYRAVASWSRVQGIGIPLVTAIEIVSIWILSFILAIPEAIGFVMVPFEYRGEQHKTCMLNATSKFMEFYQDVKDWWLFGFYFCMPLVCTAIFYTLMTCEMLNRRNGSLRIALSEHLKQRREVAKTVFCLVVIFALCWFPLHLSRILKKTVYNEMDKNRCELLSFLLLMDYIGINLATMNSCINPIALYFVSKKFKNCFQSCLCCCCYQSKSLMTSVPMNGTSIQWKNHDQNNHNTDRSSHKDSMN

[6] = target: T2, 5-hydroxytryptamine receptor 1A (Homo sapiens, UniProt P08908); type: functional, cell-based
T2 sequence (P08908 whole entry): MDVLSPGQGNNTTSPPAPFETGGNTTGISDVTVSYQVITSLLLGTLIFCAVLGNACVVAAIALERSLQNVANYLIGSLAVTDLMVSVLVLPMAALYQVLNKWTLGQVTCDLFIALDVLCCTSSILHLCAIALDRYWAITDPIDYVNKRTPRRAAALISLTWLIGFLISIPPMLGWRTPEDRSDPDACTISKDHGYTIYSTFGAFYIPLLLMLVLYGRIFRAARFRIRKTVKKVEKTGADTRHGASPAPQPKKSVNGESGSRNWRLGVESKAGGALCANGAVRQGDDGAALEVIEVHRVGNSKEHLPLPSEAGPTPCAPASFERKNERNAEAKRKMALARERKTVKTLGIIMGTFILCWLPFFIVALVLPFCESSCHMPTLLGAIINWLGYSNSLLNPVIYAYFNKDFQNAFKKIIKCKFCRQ

[7] = target: T3, Alpha-1A adrenergic receptor (Homo sapiens, UniProt P35348); type: functional, cell-based
T3 sequence (P35348 whole entry): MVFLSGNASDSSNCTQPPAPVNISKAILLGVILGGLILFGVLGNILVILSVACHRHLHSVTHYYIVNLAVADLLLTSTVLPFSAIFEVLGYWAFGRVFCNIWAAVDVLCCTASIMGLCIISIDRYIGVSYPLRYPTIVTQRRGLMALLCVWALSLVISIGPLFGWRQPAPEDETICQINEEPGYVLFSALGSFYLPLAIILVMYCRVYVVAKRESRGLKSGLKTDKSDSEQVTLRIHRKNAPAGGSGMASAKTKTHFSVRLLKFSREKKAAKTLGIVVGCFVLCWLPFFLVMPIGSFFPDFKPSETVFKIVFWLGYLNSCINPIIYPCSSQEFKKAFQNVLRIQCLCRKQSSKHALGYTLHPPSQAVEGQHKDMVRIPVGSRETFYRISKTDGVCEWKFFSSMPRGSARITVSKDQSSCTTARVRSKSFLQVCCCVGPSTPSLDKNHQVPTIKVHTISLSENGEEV

Histamine H3 receptor = Histamine H3 receptor (Homo sapiens, UniProt Q9Y5N1)
Histamine H3 receptor, sequence (Q9Y5N1 whole entry): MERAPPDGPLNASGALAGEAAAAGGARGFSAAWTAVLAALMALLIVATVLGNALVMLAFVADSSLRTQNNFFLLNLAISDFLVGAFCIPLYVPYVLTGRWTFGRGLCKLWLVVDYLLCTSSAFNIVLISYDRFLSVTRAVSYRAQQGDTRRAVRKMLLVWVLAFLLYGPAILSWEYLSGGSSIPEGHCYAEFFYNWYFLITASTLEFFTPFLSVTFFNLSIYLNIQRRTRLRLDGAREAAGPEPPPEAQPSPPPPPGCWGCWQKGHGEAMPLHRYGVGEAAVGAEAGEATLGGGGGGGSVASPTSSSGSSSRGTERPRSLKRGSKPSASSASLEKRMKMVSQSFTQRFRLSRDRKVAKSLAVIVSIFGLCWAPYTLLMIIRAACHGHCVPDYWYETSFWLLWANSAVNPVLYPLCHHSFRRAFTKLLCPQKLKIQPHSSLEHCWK

[8] = target: T4, Muscarinic acetylcholine receptor M2 (Homo sapiens, UniProt P08172); type: functional, cell-based
T4 sequence (P08172 whole entry): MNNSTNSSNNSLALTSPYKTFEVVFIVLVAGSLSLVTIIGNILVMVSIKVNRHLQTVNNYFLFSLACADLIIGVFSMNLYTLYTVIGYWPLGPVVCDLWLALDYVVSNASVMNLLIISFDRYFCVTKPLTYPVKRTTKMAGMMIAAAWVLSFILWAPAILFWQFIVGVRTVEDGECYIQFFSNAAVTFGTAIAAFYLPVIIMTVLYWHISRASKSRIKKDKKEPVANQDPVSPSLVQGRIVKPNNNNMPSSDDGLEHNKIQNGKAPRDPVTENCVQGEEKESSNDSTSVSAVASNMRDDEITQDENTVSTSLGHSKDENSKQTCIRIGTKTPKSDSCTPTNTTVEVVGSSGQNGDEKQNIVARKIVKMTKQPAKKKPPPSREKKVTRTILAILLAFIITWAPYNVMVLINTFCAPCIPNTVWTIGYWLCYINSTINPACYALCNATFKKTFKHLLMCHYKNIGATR
Also: assay procedure not described here.

Beta-1 adrenergic receptor, sequence (P08588 whole entry): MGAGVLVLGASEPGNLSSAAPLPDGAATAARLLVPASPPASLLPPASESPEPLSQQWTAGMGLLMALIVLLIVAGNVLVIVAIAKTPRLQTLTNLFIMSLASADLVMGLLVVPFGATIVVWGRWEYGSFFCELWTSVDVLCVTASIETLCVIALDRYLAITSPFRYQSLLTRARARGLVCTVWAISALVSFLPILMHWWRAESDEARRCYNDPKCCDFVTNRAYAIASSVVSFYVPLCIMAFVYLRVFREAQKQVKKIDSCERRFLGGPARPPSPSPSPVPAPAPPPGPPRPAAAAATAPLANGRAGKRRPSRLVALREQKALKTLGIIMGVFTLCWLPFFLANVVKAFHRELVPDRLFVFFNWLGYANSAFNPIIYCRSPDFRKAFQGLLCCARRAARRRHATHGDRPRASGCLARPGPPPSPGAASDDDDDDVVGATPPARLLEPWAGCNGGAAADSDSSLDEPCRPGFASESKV

| Structure (SMILES) | AC50 [1] [µM] | AC50 [2] [µM] | AC50 (Cannabinoid receptor 1) [µM] | AC50 [3] [µM] | AC50 [4] [µM] | AC50 [5] [µM] | AC50 (Endothelin-1 receptor) [µM] | AC50 [6] [µM] | AC50 [7] [µM] | AC50 (Histamine H3 receptor) [µM] | AC50 [8] [µM] |
| --- | --- | --- | --- | --- | --- | --- | --- | --- | --- | --- | --- |
| COc1ccc2c(c1)c(CC(=O)OCC(=O)O)c(C)n2C(=O)c1ccc(Cl)cc1 [ACEMETACIN] | > 30 | > 30 | > 30 | > 30 | > 30 | > 30 | > 30 | > 30 | > 30 | > 30 | > 30 |
| CC(C)c1c(C(=O)Nc2ccccc2)c(-c2ccccc2)c(-c2ccc(F)cc2)n1CC[C@@H](O)C[C@@H](O)CC(=O)O [ATORVASTATIN] | > 10 | > 10 | > 30 |  | > 30 | > 10 | > 30 | > 10 | > 30 | > 10 |  |
| CN1C(=O)COc2c(C(=O)NC3CN4CCC3CC4)cc(Cl)cc21 (stereo not drawn) [AZASETRON] | > 30 | > 30 | > 30 | > 30 | > 30 | > 30 | > 30 | > 30 | > 30 | > 30 | > 30 |
| Cc1cc2c(OCC(CNC(C)(C)C)OC(=O)c3ccccc3)cccc2[nH]1 (stereo not drawn) [BOPINDOLOL] | 0.0048 | > 30 | > 30 | > 30 | > 30 | 2.1 | > 30 | > 30 | > 30 | > 30 | > 30 |
| CCCCN1CCCCC1C(=O)Nc1c(C)cccc1C (stereo not drawn) [BUPIVACAINE] | > 30 | > 30 | > 30 | > 30 | > 30 | > 30 | > 30 | > 30 |  | > 30 | > 30 |
| CC(C)(Oc1ccc(C2CC2(Cl)Cl)cc1)C(=O)O (stereo not drawn) [CIPROFIBRATE] | > 30 | > 30 | > 30 | > 30 | > 30 | > 30 | > 30 | > 30 | > 30 | > 30 | > 30 |
| Cc1c(O)c(=O)ccn1C [DEFERIPRONE] | > 30 | > 30 | > 30 | > 30 | > 30 | > 30 | > 30 | > 30 | > 30 | > 30 | > 30 |
| CC(=O)O[C@@]12CO[C@@H]1C[C@H](O)[C@@]1(C)C(=O)[C@H](O)C3=C(C)[C@@H](OC(=O)[C@H](O)[C@@H](NC(=O)OC(C)(C)C)c4ccccc4)C[C@@](O)([C@@H](OC(=O)c4ccccc4)[C@H]21)C3(C)C [DOCETAXEL ANHYDROUS] | > 30 | > 30 |  | > 30 | > 30 | > 30 |  | > 30 |  | > 30 | > 30 |
| CCNC(C)Cc1cccc(C(F)(F)F)c1 (stereo not drawn) [FENFLURAMINE] |  | > 10 | > 30 |  | > 30 | 13.4 | > 30 |  |  | > 10 | > 30 |
| COc1c(N2CCNC(C)C2)c(F)cc2c(=O)c(C(=O)O)cn(C3CC3)c12 (stereo not drawn) [GATIFLOXACIN] | > 10 | > 10 |  | > 10 | > 30 | > 10 |  | > 10 |  |  | > 10 |
| CCN1CCC[C@H]1CNC(=O)c1cc(S(N)(=O)=O)ccc1OC [LEVOSULPIRIDE] | > 30 | > 10 | > 30 | > 10 | > 30 | > 10 |  | > 30 | > 30 | > 10 | > 10 |
| Cc1cccc(C)c1NC(=O)C1CCCCN1C (stereo not drawn) [MEPIVACAINE] | > 30 | > 30 | > 30 | > 30 | > 30 | > 30 | > 30 | > 30 | > 30 | > 30 | > 30 |
| COc1ccccc1OCC(O)COC(N)=O (stereo not drawn) [METHOCARBAMOL] | > 10 | > 10 |  | > 10 | > 30 | > 10 |  | > 10 |  |  | > 10 |
| C[C@]12CCC(=O)C=C1CC[C@@H]1[C@@H]2CC[C@@]2(C)[C@H]1CC[C@]2(C)O [METHYLTESTOSTERONE] | > 30 | > 30 | > 30 | > 30 | > 30 | > 30 | > 30 | > 30 | > 30 | > 30 | > 30 |
| NC(=O)C[S+]([O-])C(c1ccccc1)c1ccccc1 (stereo not drawn) [MODAFINIL] | > 10 | > 10 | > 30 | > 10 | > 10 | > 10 | > 30 | > 10 | > 30 | > 10 | > 10 |
| CCN(CC)CCOC(=O)c1ccc(N)cc1 [PROCAINE] | > 10 | > 10 | > 30 | > 10 | > 30 | > 10 |  | > 30 | > 30 | 8.7 | > 10 |
| C#CCN(C)[C@H](C)Cc1ccccc1 [SELEGILINE] | > 10 | > 10 | > 30 | > 10 | > 30 | 7.8 |  | > 10 | > 30 | > 10 | > 10 |
| O=C1NCCN1CCN1CCC(c2cn(-c3ccc(F)cc3)c3ccc(Cl)cc23)CC1 [SERTINDOLE] |  | > 30 | 20 | > 30 | > 30 | 3.7 | > 30 |  | > 30 | > 30 | > 10 |
| CN[C@@H]1[C@H](O)[C@H](NC)[C@H]2O[C@@]3(O)C(=O)C[C@@H](C)O[C@H]3O[C@@H]2[C@H]1O [SPECTINOMYCIN] | > 10 | > 10 |  | > 30 | > 30 | > 10 |  | > 30 |  | > 10 | > 10 |
| CC[C@]1(O)C[C@@H]2CN(CCc3c([nH]c4ccccc34)[C@@](C(=O)OC)(c3cc4c(cc3OC)N(C)[C@H]3[C@@](O)(C(N)=O)[C@H](O)[C@]5(CC)C=CCN6CC[C@]43[C@@H]65)C2)C1 [VINDESINE] | > 30 | > 30 |  | > 30 | > 30 | > 30 | > 30 | > 30 | > 30 | > 30 | > 30 |
